Measured values: US6916802B2, “Amino ceramide-like compounds and therapeutic methods of use” (Genzyme Corporation, priority 2002, dated 2005)
pIC50: −log10 of the molar value. “And” between values parts separate entries of the source, which are not always exact repeats. Identical values can stand only once. Marks after values point to notes of the source that are not given here.

Legend:
[1] = system: MCF-7 breast carcinoma cells; assay: Tumor cell growth in vitro (sulforhodamine B), MCF-7; assay type: cell-based, human; conditions: rounded off to one digit, read-out: Inhibition of tumor cell growth in vitro, IC50
Method in brief: (§1)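 Cells in RPMI 1640 + 5% FBS, plated 1000/well (H-460, 9L) or 2000/well (MCF-7); compounds added day 1 from 2 mM BSA stocks diluted 500-fold in medium. Growth read by sulforhodamine B staining, A520, at day 5 (H-460, 9L) or day 6 (MCF-7), as percent of control.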

[2] = system: H-460 lung large cell carcinoma cells; assay: Tumor cell growth in vitro (sulforhodamine B), H-460; assay type: cell-based, human; conditions: rounded off to one digit, read-out: Inhibition of tumor cell growth in vitro, IC50
Method in brief: as §1

[3] = system: 9L brain gliosarcoma cells; assay: Tumor cell growth in vitro (sulforhodamine B), 9L; assay type: cell-based; conditions: for pIC50: 9L, rounded off to one digit, read-out: Inhibition of tumor cell growth in vitro, IC50; for growth, % of control growth: 9L cells
Method in brief: as §1

[4] = system: UMSCC-10A head and neck squamous carcinoma cells; assay: Tumor cell growth in vitro (sulforhodamine B), UMSCC-10A; assay type: cell-based, human; conditions: rounded off to one digit, read-out: Inhibition of tumor cell growth in vitro, IC50
Method: Growth of cell lines. Comparisons of different inhibitors with regard to suppression of human cancer cell growth were made by the University of Michigan Cancer Center in vitro Drug Evaluation Core Laboratory. MCF-7 breast carcinoma cells, HT-29 colon adenocarcinoma cells, H-460 lung large cell carcinoma cells, and 9L brain gliosarcoma cells were grown in RPMI 1640 medium with 5% fetal bovine serum, 2 mM glutamine, 50 units/ml of penicillin, […] of streptomycin, and 0.1 mg/ml of neomycin. UMSCC-10A head and neck squamous carcinoma cells were grown in minimal essential medium with Earle salts and the same supplements. Medium components were from Sigma Chemical Co. Cells were plated in 96-well microtiter plates (1000 cells/well for H-460 and 9L cells, and 2000 cells/well for the other lines), and the test compounds were added 1 day later. The stock inhibitor solutions, 2 mM in 2 mM BSA, were diluted with different amounts of additional 2 mM BSA, then each solution was diluted 500-fold with growth medium to obtain the final concentrations indicated in the Figures and Tables.
Five days after plating the H-460 and 9L cells, or 6 days for the other lines, cell growth was evaluated by staining the adhering cells with sulforhodamine B and measuring the absorbance at 520 nm (Skehan, P. et al., “New Colorimetric Cytotoxicity Assay for Anticancer-Drug Screening,” J. Natl. Cancer Inst., 82:1107-1112 (1990)). The absorbance of the treated cultures is reported as percent of that of control cultures, to provide an estimate of the fraction of the cells that survived, or of inhibition of growth rate.

MDCK cells [5] = assay: MDCK cell growth (cellular protein per dish); assay type: cell-based, canine; conditions: duplicate dishes
Method: For the experiments with labeled thymidine, each 8.5 cm dish contained 500,000 Madin-Darby canine kidney (MDCK) cells in 8 ml of Dulbecco modified essential supplemented medium. […] The control cells were also incubated in the presence of BSA. The cells were washed with phosphate/saline and trichloroacetic acid, then scraped off the dishes, dissolved in alkali, and analyzed for protein and DNA incorporated tritium. [Methyl-^3H]thymidine (10 μCi) was added 4 h prior to harvesting.

MDCK cells [6] = assay: Lipid changes in MDCK cells (GlcCer, ceramide, diacylglycerol); assay type: cell-based, canine; conditions: for Ceramide / Diglyceride: diglyceride kinase method; for level of GlcCer, estimated visually (TLC): 24 h incubation
Method: TLC of the cell lipids was run with C-M-W 24:7:1 (solvent D) or 60:35:8 (solvent E).
Ceramide accumulation was similar for both stereoisomers (data not shown). An unexpected finding is that noticeable ceramide accumulation appeared only at inhibitor concentrations that were more than enough to bring GlcCer levels to a very low point (e.g., at 2 or 4 μM). The changes in ceramide concentration were quantitated in a separate experiment by the diglyceride kinase method, which allows one to also determine diacylglycerol (DAG) concentration (Preiss, J. E. et al., “Quantitative Measurement of SN-1,2-Diacylglycerols Present in Platelets, Hepatocytes, and Ras- and Sis-Transformed Normal Rat Kidney Cells,” J. Biol. Chem., 261:8597-8600 (1986)). The results (Table 5) are similar to the visually estimated ones: at 0.4 μM BML-129 or -130 there was little effect on ceramide content but at 4 μM inhibitor, a substantial increase was observed. (While the duplicate protein contents per incubation dish were somewhat erratic in the high-dose dishes, in which growth was slow, the changes were nevertheless large and clear.) Accumulation of ceramide had previously been observed with PDMP, at a somewhat higher level of inhibitor in the medium (Shayman, J. A. et al., “Modulation of Renal Epithelial Cell Growth by Glucosylceramide: Association with Protein Kinase C, Sphingosine, and Diacylglyceride,” J. Biol. Chem., 266:22968-22974 (1991)). From the data for cellular protein per incubation dish, it can be seen that there was no growth inhibition at the 0.4 μM level with either compound but substantial inhibition at the 4 μM level, especially with the glucosyltransferase inhibitor, BML-130. This finding is similar to the ones made in longer incubations with human cancer cells.

acid ceramidase = assay: Acid ceramidase of MDCK cell homogenate; assay type: biochemical, canine
Method: (§2) Acid and neutral ceramidases were assayed under conditions like those above, but the medium contained 110 μM [1-^14C]decanoyl sphingosine (10^5 cpm) in 340 μM dioleoylphosphatidylcholine liposomes and 0.34 mg of MDCK cellular protein homogenate. […] After 60 min in the ultrasonic bath, 3 ml of C-M 2:1, carrier decanoic acid, and 0.6 ml of 0.9% saline were added and the lipids in the lower layer were separated by TLC with C-HOAc 9:1. The liberated decanoic acid was scraped off the glass plate and counted.

neutral ceramidase = assay: Neutral ceramidase of MDCK cell homogenate; assay type: biochemical, canine
Method: as §2

Ceramide synthase = Ceramide synthase of MDCK homogenate; assay type: biochemical, canine
Method: Ceramide synthase was assayed with 1 μM [3-^3H]sphingosine (70,000 cpm, repurified by column chromatography), 0.2 mM stearoyl-CoA, 0.5 mM dithiothreitol, and ˜300 μg of MDCK homogenate protein in 25 mM phosphate-K^+ buffer, pH 7.4, in a total volume of 0.2 ml. The incubation (for 30 min) and TLC were carried out as above and the ceramide band was counted.

Sphingomyelin synthase = Sphingomyelin synthase of MDCK homogenate; assay type: biochemical, canine
Method: Sphingomyelin synthase was evaluated with 44 μM [^14C]decanoyl sphingosine (10^5 cpm) dispersed with 136 μM dioleoyllecithin as in the ceramide synthase assay, and 5 mM EDTA and 50 mM Hepes-Na^+ pH 7.5, in a total volume of 0.5 ml. MDCK homogenate was centrifuged at 600×g briefly, then at 100,000×g for 1 h, and the pellet was suspended in water and sonicated with a dipping probe. A portion of this suspension containing 300 μg of protein was used. Incubation was at 37° C. for 30 min, after which the lipids were treated as above, using C-M-W 60:35:8 for the isolation of the labeled decanoyl SM.

Work on `CCCCCCCCCCCCCCCC(=O)NC(CN1CCCC1)C(O)c1ccccc1` (racemic) [BML-129] yielded a pIC50 [1] of 5.52, a pIC50 [2] of 5.70 and a pIC50 [3] of 5.70. The pIC50 [4] was 5.70, the Protein (MDCK cells [5]; 0.4 μM in growth medium) was 538 μg/dish and 500 μg/dish and the Protein (MDCK cells [5]; 4 μM in growth medium) was 396 μg/dish and 311 μg/dish. The Ceramide (MDCK cells [6]; 0.4 μM) was 0.99 nmol/mg protein and 1.29 nmol/mg protein, the Diglyceride (MDCK cells [6]; 0.4 μM) was 5.13 nmol/mg protein and 5.51 nmol/mg protein and the “level of GlcCer, estimated visually (TLC)” value (MDCK cells [6]; 0.5 μM) was “greatly lowered”. For the same compound, the Ceramide (MDCK cells [6]; 4 μM) was 3.57 nmol/mg protein and 3.78 nmol/mg protein, the Diglyceride (MDCK cells [6]; 4 μM) was 9.30 nmol/mg protein and 9.68 nmol/mg protein and the “Ceramidase pH 4.5, enzyme activity (% of control)” value (acid ceramidase; 5 μM) was 108 ± 8 % of control. The “Ceramidase pH 4.5, enzyme activity (% of control)” value (acid ceramidase; 50 μM) was 171 ± 26^a % of control, the “Ceramidase pH 7.4, enzyme activity (% of control)” value (neutral ceramidase; 5 μM) was 100 ± 0 % of control and the “Ceramidase pH 7.4, enzyme activity (% of control)” value (neutral ceramidase; 50 μM) was 99 ± 2 % of control. The “Ceramide Synthase, enzyme activity (% of control)” value (“Ceramide Synthase … (% of control)” below) (Ceramide synthase; 5 μM) was 97 ± 0 % of control, the “Ceramide Synthase … (% of control)” value (Ceramide synthase; 50 μM) was 102 ± 1 % of control and the “Sphingomyelinase Synthase, enzyme activity (% of control)” value (Sphingomyelin synthase; 5 μM) was 84 ± 27 % of control. For the same compound, the “Sphingomyelinase Synthase, enzyme activity (% of control)” value (Sphingomyelin synthase; 50 μM) was 46 ± 11^b % of control and the “inhibition of sphingomyelin synthase” value (Sphingomyelin synthase; 50 μM) was 54%.

`CCCCCCCCCCCCCCCC(=O)NC(CN1CCCC1)C(O)c1ccccc1` (racemic) [BML-130] was tested, and the pIC50 [1] was 5.70, the pIC50 [2] was 5.52 and the “growth, % of control growth” value ([3]; 2 μM inhibitor) was 93%. For the same compound, the “growth, % of control growth” value ([3]; 3 μM inhibitor) was 5%, the pIC50 [3] was 5.70 and the pIC50 [4] was 5.70. The Protein (MDCK cells [5]; 0.4 μM in growth medium) was 544 μg/dish and 538 μg/dish, the Protein (MDCK cells [5]; 4 μM in growth medium) was 160 μg/dish and 268 μg/dish and the “level of GlcCer, estimated visually (TLC)” value (MDCK cells [6]; 0.3 μM) was “greatly lowered”. For the same compound, the Ceramide (MDCK cells [6]; 0.4 μM) was 0.94 nmol/mg protein and 0.87 nmol/mg protein, the Diglyceride (MDCK cells [6]; 0.4 μM) was 4.73 nmol/mg protein and 5.65 nmol/mg protein and the Ceramide (MDCK cells [6]; 4 μM) was 5.41 nmol/mg protein and 3.34 nmol/mg protein. The Diglyceride (MDCK cells [6]; 4 μM) was 11.9 nmol/mg protein and 8.71 nmol/mg protein, the “Ceramidase pH 4.5, enzyme activity (% of control)” value (acid ceramidase; 5 μM) was 107 ± 11 % of control and the “Ceramidase pH 4.5, enzyme activity (% of control)” value (acid ceramidase; 50 μM) was 160 ± 21^a % of control. For the same compound, the “Ceramidase pH 7.4, enzyme activity (% of control)” value (neutral ceramidase; 5 μM) was 100 ± 15 % of control, the “Ceramidase pH 7.4, enzyme activity (% of control)” value (neutral ceramidase; 50 μM) was 100 ± 15 % of control and the “Ceramide Synthase … (% of control)” value (Ceramide synthase; 5 μM) was 108 ± 10 % of control. The “Ceramide Synthase … (% of control)” value (Ceramide synthase; 50 μM) was 106 ± 29 % of control, the “Sphingomyelinase Synthase, enzyme activity (% of control)” value (Sphingomyelin synthase; 5 μM) was 87 ± 14 % of control and the “Sphingomyelinase Synthase, enzyme activity (% of control)” value (Sphingomyelin synthase; 50 μM) was 39 ± 18^b % of control. For the same compound, the “inhibition of sphingomyelin synthase” value (Sphingomyelin synthase; 50 μM) was 61%.
